Laboratory results from patent US6632977B2 (priority 1996, dated 2003).
Like-named read-outs stand apart in the source and are kept apart here.

Key:
[1] = system: transplant rejection; settings: in vivo; cited from earlier work
[2] = target: T1, δ receptor (Mus musculus, UniProt P32300); settings: for Bmax: [3H]NTI, μ receptor gene line; for NTI Bmax: kappa receptor gene line
[3] = system: mixed lymphocyte reaction (MLR); settings: in vitro; cited from earlier work
[4] = target: T1, δ receptor; assay: biochemical
[5] = system: adenylate cyclase; assay: Adenylate cyclase activity in brain homogenates after morphine deficiency induced by naloxone; format: in vivo, mice; design: Adenylate cyclase activity stimulated by forskolin: dose or concentration left out as unconfirmed; settings: for increase in adenylate cyclase activity in the striatum: naloxone after chronic morphine; for Adenylate cyclase activity stimulated by forskolin: FK; for Adenylate cyclase activity stimulated by forskolin / Adenylate cyclase activity, basal: chronic morphine then naloxone

T1 sequence (P32300 whole entry): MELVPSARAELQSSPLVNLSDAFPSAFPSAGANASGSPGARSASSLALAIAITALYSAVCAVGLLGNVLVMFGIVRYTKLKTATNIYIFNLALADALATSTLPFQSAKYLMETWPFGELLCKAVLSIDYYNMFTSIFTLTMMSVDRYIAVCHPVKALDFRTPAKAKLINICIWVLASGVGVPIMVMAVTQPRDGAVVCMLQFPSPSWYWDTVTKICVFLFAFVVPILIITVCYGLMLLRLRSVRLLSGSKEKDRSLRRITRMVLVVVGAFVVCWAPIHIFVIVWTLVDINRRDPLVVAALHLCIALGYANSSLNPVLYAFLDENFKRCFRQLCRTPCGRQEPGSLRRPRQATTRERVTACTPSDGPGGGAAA

## Oc1ccc2c3c1O[C@H]1c4[nH]c5ccccc5c4C[C@@]4(O)[C@@H](C2)N(CC2CC2)CC[C@]314 [NTI, naltrindole]
[1]
  effect on transplant rejection: prevents transplant rejection
[2]; heterozygous +/−
  Bmax: 0.103
  NTI Bmax: 0.170 pmole/mg proteins
[2]; homozygous −/−
  Bmax: 0.124
  NTI Bmax: 0.190 pmole/mg proteins
[2]; wild +/+
  Bmax: 0.095
  NTI Bmax: 0.204 pmole/mg proteins
[2]; brains of +/+, +/− and −/− MOR mice
  binding curves (Scatchard) compared between genotypes: superimposable
[2]; kappa mutant animals with respect to wild animals
  change in binding of the delta ligands: no change in the binding
[3]
  effect on the mixed lymphocyte reaction (MLR): suppressant effect
[4]; Kd, [3H]NTI, μ receptor gene line, heterozygous +/−
  Kd: 75 pM
[4]; Kd, [3H]NTI, μ receptor gene line, homozygous −/−
  Kd: 82 pM
[4]; Kd, [3H]NTI, μ receptor gene line, wild +/+
  Kd: 68 pM
[4]; NTI Kd, kappa receptor gene line, heterozygous +/−
  Kd: 109 pM
[4]; NTI Kd, kappa receptor gene line, homozygous −/−
  Kd: 114 pM
[4]; NTI Kd, kappa receptor gene line, wild +/+
  Kd: 108 pM

## CN1CC[C@]23c4c5ccc(O)c4O[C@H]2[C@@H](O)C=C[C@H]3[C@H]1C5 [morphine]
[5]; animals deficient in the μ receptor
  increase in adenylate cyclase activity in the striatum: absent
[5]; cerebellum, μ +/+
  Adenylate cyclase activity stimulated by forskolin: 966 ± 55 pmoles of cyclic AMP formed/minute/mg of protein
  Adenylate cyclase activity, basal: 209 ± 30 pmoles of cyclic AMP formed/minute/mg of protein
[5]; cerebellum, μ −/−
  Adenylate cyclase activity stimulated by forskolin: 979 ± 73 pmoles of cyclic AMP formed/minute/mg of protein
  Adenylate cyclase activity, basal: 213 ± 42 pmoles of cyclic AMP formed/minute/mg of protein
[5]; striatum, μ +/+
  Adenylate cyclase activity stimulated by forskolin: 1473 ± 43 pmoles of cyclic AMP formed/minute/mg of protein
  Adenylate cyclase activity, basal: 401 ± 22 pmoles of cyclic AMP formed/minute/mg of protein
[5]; striatum, μ −/−
  Adenylate cyclase activity stimulated by forskolin: 1158 ± 108 pmoles of cyclic AMP formed/minute/mg of protein
  Adenylate cyclase activity, basal: 304 ± 28 pmoles of cyclic AMP formed/minute/mg of protein
[5]; wild mice
  increase in adenylate cyclase activity in the striatum: 30%
